In US8187373B2, “Printing inks for offset and/or high printing containing NIR absorbers and NIR absorbers soluble in offset and/or high printing inks” (BASF SE, priority 2004, dated 2012):

Legend:
[1] = Extinction of a thin layer of printing varnish containing NIR absorber (absorption spectrum 400-1000 nm); assay type: physicochemical; conditions: 1.0% by weight NIR absorber
Procedure: Two conventional varnishes for the preparation of offset printing inks were used for the test. Varnishes are prepared formulations comprising binder and solvent, but as yet without colorant. In this way, it is possible to study the behavior of the NIR absorber also spectroscopically without interference by the colorant.
A varnish for the preparation of heatset inks comprising about 45% by weight of a low-aromatics mineral oil (boiling range from 240 to 270° C.), about 45% by weight of a rosin-modified phenol resin and about 10% by weight of an alkyd resin was used, as well as a varnish for the preparation of sheet-fed offset inks comprising about 45% by weight of a low-aromatics mineral oil (boiling range from 260 to 290° C.), about 45% by weight of a rosin-modified phenol resin and about 10% by weight of linseed oil.
Furthermore, a thin layer of above liquids was produced and was investigated spectroscopically. For this purpose, the above liquids were diluted 1:5 with dichloromethane, and the resulting solution was applied to a microscope slide by means of a knife coater so that, after evaporation of the dichloromethane, a layer of about 2 μm thick remained. An absorption spectrum (400-1000 nm) of this layer was then recorded after 2 hours.

[2] = Testing of the NIR absorbers in yellow heatset offset printing ink, printed on paper; assay type: physicochemical; conditions: 0.5% by weight in commercial yellow heatset offset printing ink
Procedure: In each case 0.5% by weight of the absorber A1 or A2 not according to the invention was added to a commercial yellow heatset offset printing ink, and the mixtures were thoroughly stirred.
Samples of the inks obtained were printed on paper.
The procedure was as in the comparative example, except that in each case 0.5% by weight of the novel NIR absorber B2 or B4 was used.

## CCN1/C(=C/C=C2\CCC(/C=C/C3=[N+](CC)c4ccccc4C3(C)C)=C2Cl)C(C)(C)c2ccccc21 [Compound B4]
[1]
  extinction E at 810 nm: 0.83
[2]
  dissolution of NIR absorber in the offset ink: dissolved completely

## CCN1/C(=C/C=C2\CCC(/C=C/C3=[N+](CC)c4ccccc4C3(C)C)=C2Cl)C(C)(C)c2ccccc21 [Compound A2]
[1]
  extinction E at 810 nm: < 0.01
[2]
  dissolution of NIR absorber in the offset ink: did not dissolve
